Reference: patent publication US6730691B1, “Uses of alpha adrenergic blocking agents” (priority 2000, dated 2004)
Counter-ions that a name gives are not always drawn.

Assays:
[1] = system: subjects who had undergone surgical implantation of a refractive intraocular lens, experiencing photophobia, glare, secondary images and haloing; test: Topical thymoxamine ophthalmic solution in subjects after implantation of a refractive intraocular lens; type: in vivo, human; conditions: three subjects
Experimental: A suitable ophthalmic solution was prepared containing about 0.5% by weight thymoxamine by the Moorfields Eye Hospital, London, England having the following composition: Applicant believes that the aqueous ophthalmic solution was prepared by dissolving the sodium acetate, boric acid and phenylmercuric nitrate in most of the purified water. Dissolution was promoted by heating the solution. Upon cooling the solution to room temperature, the thymoxamine hydrochloride was added and was dissolved without further heating. The remainder of the purified water was then added to reach a final volume of 100 ml. Sterilization of the solution was achieved by filtering it through a sterilizing filter. Three subjects, each of whom had undergone surgical implantation of a refractive intraocular lens, were selected for study. Each of the three subjects complained of experiencing photophobia, glare, secondary images and haloing, especially at night. Each of the three subjects received an approximately one drop dose twice daily of an ophthalmic solution containing 0.5% by weight of thymoxamine. […] Each of the subjects continued application of approximately a one drop dose on an as needed basis for a period of one month.

[2] = system: patients who had undergone radial keratotomy and who each experienced glare and halos; test: Topical thymoxamine ophthalmic solution in patients after radial keratotomy; type: in vivo, human; conditions: two radial keratotomy patients; similarly treated with 0.5% by weight solution

CC(=O)Oc1cc(C(C)C)c(OCCN(C)C)cc1C [thymoxamine, thymoxamine hydrochloride]
induced myopia or headaches ([1]; 0.5% by weight solution, one day period): without experiencing induced myopia or headaches | irritation from the topical application to the eye ([1]; after administration of a dosage of 0.5% by weight solution): mild irritation | undesirable visual anomalies once treatment was terminated ([1]; after termination of treatment): returned to each of the three subjects | undesirable visual anomaly during the usage period ([1]; approximately one drop as needed for one month): None of the subjects have experienced the previously complained of undesirable visual anomaly | previously complained of undesirable visual anomaly (photophobia, glare, secondary images, haloing) ([1]; approximately one drop twice daily of 0.5% by weight solution, one day period): elimination of the previously complained of undesirable visual anomaly | glare and halos after treatment [2]: comparable results
